# Entries after “also recorded” stand apart in the source; their conditions may differ.
# Key:
# [1] = test system: subjects with allergic conjunctivitis to grass, tree or ragweed pollen (CAPT); assay: Phase IIa Conjunctival Allergen Provocation Test (CAPT) study, activity endpoints; format: in vivo, human; settings: for efficacy in treating allergic conjunctivitis, result in words: clinical trial, topical ocular, four times daily about two weeks
# Text: The primary objective of the study is to evaluate the safety and activity of NS2, i.e., compound of structural formula (I), compared to vehicle in the treatment of moderate to severe allergic conjunctivitis in subjects allergic to grass, ragweed or tree allergens following approximately 2 weeks of treatment using the Conjunctival Allergen Provocation Test (CAPT) model.
# This double-blind, vehicle-controlled, randomized, parallel group study allows for testing NS2 versus vehicle in subjects with grass, tree or ragweed-induced allergic conjunctivitis in CAPT model. This study consists of 7 or 8 visits to the clinic (a medical screening visit, a titrating CAPT visit, 1 or 2 confirmatory CAPT visits, a CAPT Onset of Action Visit, and three post-2 week dosing CAPT visits) over approximately 9 weeks.
# At Visit 4, site staff will update concomitant medications and collect AEs as applicable. Ophthalmic evaluations are conducted (VA, SLE, subject rating of ocular symptoms, and staff grading of conjunctival redness and lid swelling). Subjects must have ocular itching scores of 0 in each eye and conjunctival redness scores of ≤1 in each eye in each region (nasal and temporal) of each eye in order to participate. […] 30 min prior to the CAPT procedure, clinic staff instills one drop of the randomized treatment into each eye. CAPT is then performed using the concentration titration than what reached the positive response at Visit 3 or 3B. Once the CAPT allergen is instilled, subject assessed symptoms and staff assessed signs are collected at 2.5 (+1 min—itching only), 5, 10, 15 min (+2 min), 30, 60, 90, 120, 150, 180 (+5 min). At the end of the visit, subjects are instructed and dispensed their randomized treatment for 2 weeks of at-home qid dosing and their diary card for recording their dosing, AEs, and concomitant medications. Subjects are scheduled to return for Visit 5 in 2 weeks.
# (§1) At Visit 5, site staff will update concomitant medications and collect AEs as applicable. Ophthalmic evaluations are conducted (VA, SLE, subject rating of ocular symptoms, and staff grading of conjunctival redness and lid swelling). Approximately 10 μL of basal tears is collected from both eyes for cytokine analysis prior to drug instillation and CAPT. 30 min prior to the CAPT procedure, clinic staff instills one drop of the randomized treatment into each eye. CAPT is then performed using the concentration titration than what reached the positive response at Visit 3 or 3B. Once the CAPT allergen is instilled, subject assessed symptoms and staff assessed signs are collected at 2.5 (+1 min—itching only), 5, 10, 15 min (+2 min), 30, 60, 90, 120, 150, 180 min (+5 min). Following CAPT instillation, tear collection is begun at the 35 min (+15 min) mark, and approximately 10 μL of basal tears is collected from both eyes.
# as §1, with “Visit 6,” for “Visit 5,”, “swelling).” for “swelling). Approximately 10 μL of basal tears is collected from both eyes for cytokine analysis prior to drug instillation and CAPT.”, “min).” for “min). Following CAPT instillation, tear collection is begun at the 35 min (+15 min) mark, and approximately 10 μL of basal tears is collected from both eyes.”
# At Visit 7, site staff will update concomitant medications and collect AEs as applicable. Ophthalmic evaluations are conducted (VA, SLE, subject rating of ocular symptoms, and staff grading of conjunctival redness and lid swelling). 30 min prior to the CAPT procedure, clinic staff instills one drop of the randomized treatment into each eye. CAPT is then performed using the concentration titration than what reached the positive response at Visit 3 or 3B. […]
# [2] = test system: subjects with allergic conjunctivitis; assay: Phase IIa CAPT study, safety and tolerability; format: in vivo, human
# Text: Clinical Study Endpoints—Safety Endpoints: (1) number and severity of local and systemic reactions, and other adverse reactions; (2) vital signs; (3) slit lamp examination; (4) visual acuity; (5) non-contact tonometry; and (6) fundus examination.
# Study Products and Randomization. For study purposes, NS2 0.5% and NS2 0.0% are both referred to as study drug. NS2 is formulated in eye drops for topical ocular use. The drug product is supplied as single dose unpreserved eye drops at an NS2 concentration of 0.5% (w/v). The formulation is 9.5% sulfobutylether-β-cyclodextrin (SBE-β-CD) in sterile water for injection buffered with sodium phosphate, dibasic and monobasic, and pH adjusted to 7.3.
# Dose Administration. NS2 ophthalmic drops (0.5%) or NS2 ophthalmic drops (0.0%) Vehicle are provided as single use blow fill vials. One drop is instilled into each eye four times daily for approximately […].
# Adverse Events. An adverse event (AE) is defined as any untoward medical occurrence associated with the use of a drug in humans, whether or not considered drug related. Disease signs, symptoms, and/or laboratory abnormalities already existing prior to the use of the product are not considered AEs after treatment unless they reoccur after the subject has recovered from the pre-existing condition or, in the opinion of the investigator, they represent a clinically significant exacerbation in intensity or frequency. AEs are collected from the time the subject signs the informed consent form until the completion of study. AEs reported prior to dosing are captured and considered non treatment emergent AEs.
# Safety Analysis. Safety is evaluated via the following parameters: (a) AEs; (b) Vital signs; (c) Slit lamp examination; (d) Visual acuity; (e) Non-contact tonometry; and (f) Fundus examination.
# Cyclodextrin Response in CAPT Model. Cyclodextrin was utilized as vehicle in a Randomized, Parallel, Single-Center, Double-Masked, Vehicle-Controlled Phase II Study to Evaluate the Activity of Study Drug NS2 (i.e., structural formula (I)) Ophthalmic Solution in Subjects with Allergic Conjunctivitis using the Conjunctival Allergen Provocation Test (CAPT). There were initial screening and titrating CAPT visits, followed by confirmatory CAPT visits where the allergen dose which reproducibly causes an ocular allergic reaction was selected. This allergen dose was utilized for the active dosing study phase. A CAPT Onset of Action Visit after a single dose of study drug to each eye on dosing Day 1, Visit 4 (V4), and three post-2 week dosing CAPT visits on active dosing days 14, 15 and 16, V5-7. NS2 and vehicle were dosed 4× daily for 16 days. 100 healthy men and women with at least a 2 year history of allergic conjunctivitis to grass, tree or ragweed pollen were enrolled, randomized 1:1, 50 on NS2 and 50 on vehicle containing cyclodextrin.
# The allergic conjunctivitis Phase IIa trial was a randomized, parallel group, double-masked, vehicle-controlled design evaluating the activity of NS2 ophthalmic solution in subjects with allergic conjunctivitis. The trial utilized the Conjunctival Allergen Provocation Test, known as the CAPT, and was conducted at a single center, Inflamax Research in Ontario, Canada, which has considerable experience with the CAPT model.
# [3] = CAPT, Day 1 single dose and multiple days dosing, NS2 0.5% vs vehicle (9.5% SBE-β-CD)
# [4] = 16 days of dosing four times per day, 50 subjects
Compound,"efficacy in treating allergic conjunctivitis, result in words [1]",duration of clinical efficacy following each CAPT challenge ([1]; 3 hours studied after each CAPT challenge),"ocular itching score, result in words [1, 3]","ocular tearing score, result in words [1, 3]","lid swelling, frequency and pattern, result in words ([1]; CAPT, NS2 vs vehicle)","patients of the drug group who withdrew from the study (stinging) [2, 4]","patients of the drug group who withdrew from the study (stinging), percent [2, 4]",stinging/burning adverse events reported as moderate ([2]; NS2 group),frequency of stinging and or burning ([2]; NS2 group vs vehicle),"tolerability, result in words ([2]; topical ocular 0.5%, 4x daily, 16 days)",serious adverse events ([2]; whole study)
sulfobutylether-β-cyclodextrin,high response rates and significant efficacy,–,–,–,–,–,–,–,–,–,–
CC(C)(O)c1nc2ccc(Cl)cc2cc1N [NS2],greater effect,≥ 3 h,statistically significant differences; also recorded: greater effect; also recorded: exceeding one point reductions,statistically significant differences; also recorded: greater effect; also recorded: exceeding one point reductions,appeared similar,2 patients,4%,less than 10%,increased frequency,generally well tolerated,no serious adverse events

# From patent US10426790B2, “Treatment of allergic eye conditions with cyclodextrins” (Aldeyra Therapeutics, Inc., priority 2016, dated 2019)
